pIC50: −log10 of the molar value.
The compounds below were run against T1, ALK (baculovirus expressed human ALK kinase domain F1098-K1410) (Homo sapiens, UniProt Q9UM73) (assay: biochemical). Details: 1 μM ATP, 4 μM poly-AEKY, 12 nM ALK, 2 hours at ambient temperature; read-out: ALK IC50.
T1 construct: human ALK kinase domain F1098-K1410; made in house
T1 sequence (Q9UM73 1098-1410): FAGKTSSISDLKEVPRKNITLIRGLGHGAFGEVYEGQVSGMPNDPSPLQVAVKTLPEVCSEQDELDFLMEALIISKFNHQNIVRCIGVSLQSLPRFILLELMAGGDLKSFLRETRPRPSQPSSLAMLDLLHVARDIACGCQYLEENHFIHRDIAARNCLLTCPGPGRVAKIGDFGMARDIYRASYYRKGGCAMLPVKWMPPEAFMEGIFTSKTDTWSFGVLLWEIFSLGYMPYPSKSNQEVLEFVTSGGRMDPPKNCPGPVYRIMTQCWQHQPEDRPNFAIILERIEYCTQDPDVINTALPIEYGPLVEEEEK
Protocol: Kinase activity and compound inhibition are investigated using one or more of the three assay formats described below. The ATP concentrations for each assay are selected to be close to the Michaelis-Menten constant (KM) for each individual kinase. Dose-response experiments are performed at 10 different inhibitor concentrations in a 384-well plate format. […] Y=Min+(Max−Min)/(1+(X/IC50)^H) Equation (2) Luciferase-Coupled Chemiluminescent Kinase Assay
ALK biochemical activity was assessed using a Luciferase-Coupled Chemiluminescent Kinase assay (LCCA) format in which kinase activity was measured as the percent ATP remaining following the kinase reaction. ATP remaining after the kinase reaction was detected by luciferase-luciferin-coupled chemiluminescence. […] The mixture was incubated at ambient temperature for 2 hours after which 20 μL luciferase-luciferin mix was added and the chemiluminescent signal read using a Wallac Victor^2 reader. […] Consumption of ATP by ALK can be quantified and utilized as a measure of inhibition of ALK activity by compounds described herein. By employing serial dilutions of compounds to be tested, the ability of test compounds to inhibit ALK activity can be determined.
For `O=C(COc1ccc(OC(F)(F)F)cc1)NCc1nc(C(=O)NCc2c(Cl)cccc2Oc2ccccc2)cs1` [Entry 163, N-{[2-chloro-6-(phenyloxy)phenyl]methyl}-2-({[({4-[(trifluoromethyl)oxy]phenyl}oxy)acetyl]amino}methyl)-1,3-thiazole-4-carboxamide], the pIC50 was 6.30 to 7.30. `O=C(COc1ccc(OC(F)(F)F)cc1)NCc1nc(C(=O)NCCSCc2ccco2)cs1` [Entry 71, N-{2-[(furan-2-ylmethyl)thio]ethyl}-2-({[({4-[(trifluoromethyl)oxy]phenyl}oxy)acetyl]amino}methyl)-1,3-thiazole-4-carboxamide] showed a pIC50 of 6.30 to 7.30. `C[C@@H]1[C@@H](NC(=O)c2csc(CNC(=O)COc3ccc(OC(F)(F)F)cc3)n2)C[C@H]2C[C@@H]1C2(C)C` [Entry 12, 2-({[({4-[(trifluoromethyl)oxy]phenyl}oxy)acetyl]amino}methyl)-N-[(1S,2S,3S,5R)-2,6,6-trimethylbicyclo[3.1.1]hept-3-yl]-1,3-thiazole-4-carboxamide] was tested, and the pIC50 was greater than 7.30. Compound `CC1CCC(NC(=O)c2csc(CNC(=O)COc3ccc(OC(F)(F)F)cc3)n2)CC1` (stereo not shown) [Entry 140, N-(4-methylcyclohexyl)-2-({[({4-[(trifluoromethyl)oxy]phenyl}oxy)acetyl]amino}methyl)-1,3-thiazole-4-carboxamide] has a pIC50 of 6.30 to 7.30. Compound `CSCCNC(=O)c1csc(CNC(=O)COc2ccc(OC(F)(F)F)cc2)n1` [Entry 195, N-[2-(methylthio)ethyl]-2-({[({4-[(trifluoromethyl)oxy]phenyl}oxy)acetyl]amino}methyl)-1,3-thiazole-4-carboxamide] has a pIC50 of 6.30 to 7.30. `CC(=O)NCCNC(=O)c1csc(CNC(=O)COc2ccc(OC(F)(F)F)cc2)n1` [Entry 281, N-[2-(acetylamino)ethyl]-2-({[({4-[(trifluoromethyl)oxy]phenyl}oxy)acetyl]amino}methyl)-1,3-thiazole-4-carboxamide] was tested, and the pIC50 was 5.70 to 6.30. `O=C(COc1ccc(OC(F)(F)F)cc1)NCc1nc(C(=O)NC2CCN(Cc3ccccc3)CC2)cs1` [Entry 84, N-[1-(phenylmethyl)piperidin-4-yl]-2-({[({4-[(trifluoromethyl)oxy]phenyl}oxy)acetyl]amino}methyl)-1,3-thiazole-4-carboxamide] gave a pIC50 of 6.30 to 7.30. With `Cc1cccc(CCNC(=O)c2coc(CNC(=O)COc3ccc(OC(F)(F)F)cc3)n2)c1` [Entry 151, N-[2-(3-methylphenyl)ethyl]-2-({[({4-[(trifluoromethyl)oxy]phenyl}oxy)acetyl]amino}methyl)-1,3-oxazole-4-carboxamide] the pIC50 was 6.30 to 7.30. In the case of `CSc1ccccc1CNC(=O)c1coc(CNC(=O)COc2ccc(OC(F)(F)F)cc2)n1` [Entry 186, N-{[2-(methylthio)phenyl]methyl}-2-({[({4-[(trifluoromethyl)oxy]phenyl}oxy)acetyl]amino}methyl)-1,3-oxazole-4-carboxamide], the pIC50 was 6.30 to 7.30. Compound `CCCCCCC(C)NC(=O)c1csc(CNC(=O)COc2ccc(OC(F)(F)F)cc2)n1` (stereo not shown) [Entry 220, N-(1-methylheptyl)-2-({[({4-[(trifluoromethyl)oxy]phenyl}oxy)acetyl]amino}methyl)-1,3-thiazole-4-carboxamide] has a pIC50 of 5.70 to 6.30. `CCOc1ccc(CCNC(=O)c2csc(CNC(=O)COc3ccc(OC(F)(F)F)cc3)n2)cc1OC` [Entry 43, N-{2-[4-(ethyloxy)-3-(methyloxy)phenyl]ethyl}-2-({[({4-[(trifluoromethyl)oxy]phenyl}oxy)acetyl]amino}methyl)-1,3-thiazole-4-carboxamide] showed a pIC50 of 6.30 to 7.30. With `CC(NC(=O)c1csc(CNC(=O)COc2ccc(OC(F)(F)F)cc2)n1)c1ccc(F)cc1` (stereo not shown) [Entry 86, N-[1-(4-fluorophenyl)ethyl]-2-({[({4-[(trifluoromethyl)oxy]phenyl}oxy)acetyl]amino}methyl)-1,3-thiazole-4-carboxamide] the pIC50 was 6.30 to 7.30. `CC1CN(C(=O)c2csc(CNC(=O)COc3ccc(OC(F)(F)F)cc3)n2)CCN1c1ccccc1` (stereo not shown) [Entry 253, N-({4-[(3-methyl-4-phenylpiperazin-1-yl)carbonyl]-1,3-thiazol-2-yl}methyl)-2-({4-[(trifluoromethyl)oxy]phenyl}oxy)acetamide] showed a pIC50 of 5.70 to 6.30.

Source: patent US7973061B2, “Anaplastic lymphoma kinase modulators and methods of use” (Exelixis, Inc., priority 2004, dated 2011)
